Data taken from patent publication US6599925B2 (Wyeth, priority 2001, dated 2003).

Key:
human PAI-1 = human PAI-1 (Homo sapiens, UniProt P05121); experiment: Assay for determining IC50 of inhibition of PAI-1 (Antibody Assay); format: binding; settings: footnote a: determined by the Antibody Assay; active PAI-1 bound to tPA-coated plate, pH 7.5
Experimental: Assay for Determining IC50 of Inhibition of PAI-1
This assay is based upon the non-SDS dissociable interaction between tPA and active PAI-1. Assay plates are initially coated with human tPA (10 μg/ml). Test compounds are dissolved in DMSO at 10 mM, then diluted with physiologic buffer (pH 7.5) to a final concentration of 1-50 μM. The test compounds are incubated with human PAI-1 (50 ng/ml) for 15 minutes at room temperature. The tPA-coated plate is washed with a solution of 0.05% Tween 20 and 0.1% BSA, then the plate is blocked with a solution of 3% BSA. An aliquot of the test compound/PAI-1 solution is then added to the tPA-coated plate, incubated at room temperature for 1 hour, and washed. Active PAI-1 bound to the plate is assessed by adding an aliquot of a 1:1000 dilution of the 33B8 monoclonal antibody against human PAI-1, and incubating the plate at room temperature for 1 hour (Molecular Innovations, Royal Oak, Mich.). The plate is again washed, and a solution of goat anti-mouse IgG-alkaline phosphatase conjugate is added at a 1:50,000 dilution in goat serum. The plate is incubated 30 minutes at room temperature, washed, and a solution of alkaline phosphatase substrate is added. The plate is incubated 45 minutes at room temperature, and color development is determined at OD405nm. The quantitation of active PAI-1 bound to tPA at varying concentrations of the test compound is used to determine the IC50. Results are analyzed using a logarithmic best-fit equation. The assay sensitivity is 5 ng/ml of human PAI-1 as determined from a standard curve ranging from 0-100 ng/ml.

human PAI-1, sequence (P05121 24-402): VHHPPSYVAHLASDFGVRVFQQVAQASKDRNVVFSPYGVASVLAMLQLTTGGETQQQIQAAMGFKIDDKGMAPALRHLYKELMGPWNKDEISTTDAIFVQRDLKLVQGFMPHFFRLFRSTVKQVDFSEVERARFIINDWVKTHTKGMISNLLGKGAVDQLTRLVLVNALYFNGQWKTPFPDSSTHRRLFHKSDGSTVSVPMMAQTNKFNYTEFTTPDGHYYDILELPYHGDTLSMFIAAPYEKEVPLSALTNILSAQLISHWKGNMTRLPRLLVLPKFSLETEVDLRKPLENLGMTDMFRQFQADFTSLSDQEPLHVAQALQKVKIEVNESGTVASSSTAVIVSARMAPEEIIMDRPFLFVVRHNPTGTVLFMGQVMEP

CCCCC(=O)c1c(-c2ccc3c(Cl)c(OCc4nnn[nH]4)ccc3c2)oc2ccccc12 [Example 25, 1-{2-[5-Chloro-6-(1H-1,2,3,4-tetraazol-5-ylmethoxy)-2-naphthyl]-1-benzofuran-3-yl}-1-pentanone]
melting point: 168 to 169 °C
IC50 (human PAI-1): 14 µM

CCCCC(=O)c1c(-c2ccc3c(C)c(OCC(=O)O)ccc3c2)oc2ccccc12 [Example 22, 2-{[1-Methyl-6-(3-pentanoyl-1-benzofuran-2-yl)-2-naphthyl]oxy}acetic acid]
melting point: 153 to 155 °C
IC50 (human PAI-1): 13.3 µM

CC(C)CC(=O)c1c(-c2ccc3c(Br)c(OCc4nnn[nH]4)ccc3c2)oc2ccccc12 [Example 9, 1-{2-[5-Bromo-6-(1H-1,2,3,4-tetraazol-5-ylmethoxy)-2-naphthyl]-1-benzofuran-3-yl}-3-methyl-1-butanone]
melting point: 176 to 177 °C
IC50 (human PAI-1): 18.7 µM

O=C(O)COc1ccc2cc(-c3oc4ccccc4c3-c3ccccc3)ccc2c1-c1ccccc1 [Example 29, {[1-Phenyl-6-(3-phenyl-1-benzofuran-2-yl)-2-naphthyl]oxy}acetic acid]
melting point: 202 to 203 °C
IC50 (human PAI-1): 3.85 µM

CC(C)(C)CC(=O)c1c(-c2ccc3cc(OCC(=O)O)ccc3c2)oc2ccccc12 [Example 6, 2-({6-[3-(3,3-Dimethylbutanoyl)-1-benzofuran-2-yl]-2-naphthyl}oxy)acetic acid]
melting point: 207 to 209 °C
IC50 (human PAI-1): 8.7 µM

CCCCCc1c(-c2ccc3cc(OCc4nnn[nH]4)ccc3c2)oc2ccccc12 [Example 34, 5-[6-(3-Pentyl-benzofuran-2-yl)-naphthalen-2-yloxymethyl]-1H-tetrazole]
melting point: 178 to 180 °C
IC50 (human PAI-1): 8.17 µM

O=C(O)COc1ccc2cc(-c3oc4ccccc4c3C(=O)CC3CCCC3)ccc2c1Br [Example 17, 2-({1-Bromo-6-[3-(2-cyclopentylacetyl)-1-benzofuran-2-yl]-2-naphthyl}oxy)acetic acid]
melting point: 150 to 152 °C
IC50 (human PAI-1): 2.7 µM

CCCCC(=O)c1c(-c2ccc3c(-c4ccccc4)c(OCc4nnn[nH]4)ccc3c2)oc2ccccc12 [Example 16, 1-{2-[5-Phenyl-6-(1H1,2,3,4-tetraazol-5-ylmethoxy)-2-naphthyl]-1-benzofuran-3-yl}-1-pentanone]
melting point: 160 to 164 °C
IC50 (human PAI-1): 10 µM

O=C(CC1CCCC1)c1c(-c2ccc3c(Br)c(OCc4nnn[nH]4)ccc3c2)oc2ccccc12 [Example 13, 1-{2-[5-Bromo-6-(1H-1,2,3,4-tetraazol-5-ylmethoxy)-2-naphthyl]-1-benzofuran-3-yl}-2-cyclopentyl-1-ethanone]
melting point: 186 to 187 °C
IC50 (human PAI-1): 10.1 µM

CCCCCc1c(-c2ccc3c(Br)c(OCC(=O)O)ccc3c2)oc2ccccc12 [Example 36, [1-Bromo-6-(3-pentyl-benzofuran-2-yl)-naphthalen-2-yloxy]-acetic acid]
melting point: 159 to 161 °C
IC50 (human PAI-1): 6.54 µM

CCCCC(=O)c1c(-c2ccc3c(-c4ccccc4)c(OCC(=O)[O-])ccc3c2)oc2ccccc12.[Na+] [Example 14, 2-{[6-(3-Pentanoyl-1-benzofuran-2-yl)-1-phenyl-2-naphthyl]oxy}acetic acid, sodium salt]
melting point: 272 to 273 °C (dec.)
IC50 (human PAI-1): 2.7 µM
